Test results reported in EP2818472A1, “Imidazo[4,5-c]pyridine and pyrrolo[3,2-c]pyridine compounds as G-protein-coupled receptor kinase 5 (GRK5) modulators” (Max-Planck-Gesellschaft zur Förderung der Wissenschaften …, priority 2013, dated 2014).

tested on: beta-TC6 cells; assay: Insulin HTRF assay (relative activity Ar) in beta-TC6 cells; type: cell-based, mouse; details: Mus musculus, Beta-TC6, 4 h, insulin HTRF, supernatant of beta-TC6 cells, incubation with test compound at 37°C for 2, 3, 4h; read-out: Ar (relative activity)
Outline: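 beta-TC6 cells (15k/well, seeded 24 or 48 h) washed, then exposed to compound in induction buffer (0.5% DMSO final) for 2, 3 or 4 h at 37°C.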

CNc1nc2cnc(Nc3ccccn3)cc2n1-c1cccc(C(F)(F)F)c1 [Compound 548, N2-methyl-N6-(2-pyridyl)-1-[3-(trifluoromethyl)phenyl]imidazo[4,5-c]pyridine-2,6-diamine] and CNc1nc2cnc(Nc3cccc(O)c3)cc2n1-c1cccc(C(F)(F)F)c1 [Compound 550, 3-[[2-(methylamino)-1-[3-(trifluoromethyl)phenyl]imidazo[4,5-c]pyridin-6-yl]amino]phenol] fall in the same range of Emax: 30 to 50% for the first, 30 to 50% for the second.

First: CNc1nc2cnc(Nc3ccc4c(c3)OCO4)cc2n1-c1cccc(C(F)(F)F)c1 [Compound 549, N6-(1,3-benzodioxol-5-yl)-N2-methyl-1-[3-(trifluoromethyl)phenyl]imidazo[4,5-c]pyridine-2,6-diamine]
Second: CNc1nc2cnc(Nc3ccc(OC)c(O)c3)cc2n1-c1cccc(C(F)(F)F)c1 [Compound 551, 2-methoxy-5-[[2-(methylamino)-1-[3-(trifluoromethyl)phenyl]imidazo[4,5-c]pyridin-6-yl]amino]phenol]
The Emax of the first is lower: 30 to 50% for the first, 50 to 100% for the second.

CNc1nc2cnc(Nc3cccc(OC)c3)cc2n1CCN1CCOCC1 [Compound 552, N6-(3-methoxyphenyl)-N2-methyl-1-(2-morpholinoethyl)imidazo[4,5-c]pyridine-2,6-diamine] and CNc1nc2cnc(Nc3cccc(C)c3)cc2n1CCN1CCOCC1 [Compound 556, N2-methyl-1-(2-morpholinoethyl)-N6-(m-tolyl)imidazo[4,5-c]pyridine-2,6-diamine] fall in the same range of Emax: 30 to 50% for the first, 30 to 50% for the second.

CNc1nc2cnc(Nc3ccc(OC)cc3OC)cc2n1CCN1CCOCC1 [Compound 553, N6-(2,4-dimethoxyphenyl)-N2-methyl-1-(2-morpholinoethyl)imidazo[4,5-c]pyridine-2,6-diamine] and CNc1nc2cnc(Nc3ccc(OC)c(OC)c3)cc2n1CCN1CCOCC1 [Compound 555, N6-(3,4-dimethoxyphenyl)-N2-methyl-1-(2-morpholinoethyl)imidazo[4,5-c]pyridine-2,6-diamine] fall in the same range of Emax: 30 to 50% for the first, 30 to 50% for the second.

First: CNc1nc2cnc(Nc3ccc4c(c3)OCCO4)cc2n1CCN1CCOCC1 [Compound 554, N6-(2,3-dihydro-1,4-benzodioxin-6-yl)-N2-methyl-1-(2-morpholinoethyl)imidazo[4,5-c]pyridine-2,6-diamine]
Second: CNc1nc2cnc(Nc3ccc4c(c3)OCCO4)cc2n1CC1CC1 [Compound 570, 1-(cyclopropylmethyl)-N6-(2,3-dihydro-1,4-benzodioxin-6-yl)-N2-methyl-imidazo[4,5-c]pyridine-2,6-diamine]
The Emax of the first is higher: 50 to 100% for the first, 30 to 50% for the second.

CNc1nc2cnc(Nc3ccc(OC)cc3)cc2n1CCN1CCOCC1 [Compound 557, N6-(4-methoxyphenyl)-N2-methyl-1-(2-morpholinoethyl)imidazo[4,5-c]pyridine-2,6-diamine] and CNc1nc2cnc(Nc3cccc(C(C)=O)c3)cc2n1CCN1CCOCC1 [Compound 558, 1-[3-[[2-(methylamino)-1-(2-morpholinoethyl)imidazo[4,5-c]pyridin-6-yl]amino]phenyl]ethanone] fall in the same range of Emax: 50 to 100% for the first, 50 to 100% for the second.

CNc1nc2cnc(Nc3cc(OC)c(OC)c(OC)c3)cc2n1Cc1cccnc1 [Compound 559, N2-methyl-1-(3-pyridylmethyl)-N6-(3,4,5-trimethoxyphenyl)imidazo[4,5-c]pyridine-2,6-diamine] and CNc1nc2cnc(Nc3cc(OC)c(OC)c(OC)c3)cc2n1CC1CC1 [Compound 567, 1-(cyclopropylmethyl)-N2-methyl-N6-(3,4,5-trimethoxyphenyl)imidazo[4,5-c]pyridine-2,6-diamine] fall in the same range of Emax: 50 to 100% for the first, 50 to 100% for the second.

CNc1nc2cnc(Nc3cccc(OC)c3)cc2n1Cc1cccnc1 [Compound 560, N6-(3-methoxyphenyl)-N2-methyl-1-(3-pyridylmethyl)imidazo[4,5-c]pyridine-2,6-diamine] and CNc1nc2cnc(Nc3cccc(C)c3)cc2n1Cc1cccnc1 [Compound 564, N2-methyl-N6-(m-tolyl)-1-(3-pyridylmethyl)imidazo[4,5-c]pyridine-2,6-diamine] fall in the same range of Emax: 50 to 100% for the first, 50 to 100% for the second.

Compared with CNc1nc2cnc(Nc3ccc4c(c3)OCCO4)cc2n1Cc1cccnc1 [Compound 561, N6-(2,3-dihydro-1,4-benzodioxin-6-yl)-N2-methyl-1-(3-pyridylmethyl)imidazo[4,5-c]pyridine-2,6-diamine], CNc1nc2cnc(Nc3ccc(F)cc3)cc2n1Cc1cccnc1 [Compound 565, N6-(4-fluorophenyl)-N2-methyl-1-(3-pyridylmethyl)imidazo[4,5-c]pyridine-2,6-diamine] is lower in Emax: over 100% for the first, 50 to 100% for the second.

CNc1nc2cnc(Nc3ccccc3)cc2n1Cc1cccnc1 [Compound 562, N2-methyl-N6-phenyl-1-(3-pyridylmethyl)imidazo[4,5-c]pyridine-2,6-diamine] and CNc1nc2cnc(-c3cccs3)cc2n1Cc1cccnc1 [Compound 566, N-methyl-1-(3-pyridylmethyl)-6-(2-thienyl)imidazo[4,5-c]pyridin-2-amine] fall in the same range of Emax: 30 to 50% for the first, 30 to 50% for the second.

CNc1nc2cnc(-c3cccnc3)cc2n1Cc1cccnc1 [Compound 563, N-methyl-6-(3-pyridyl)-1-(3-pyridylmethyl)imidazo[4,5-c]pyridin-2-amine] and COc1cc(Nc2nc3cnc(-c4cccnc4)cc3n2C)cc(OC)c1OC [Compound 589, 1-methyl-6-(3-pyridyl)-N-(3,4,5-trimethoxyphenyl)imidazo[4,5-c]pyridin-2-amine] fall in the same range of Emax: 50 to 100% for the first, 50 to 100% for the second.

CNc1nc2cnc(Nc3ccc(NC(C)=O)cc3)cc2n1CC1CC1 [Compound 568, N-[4-[[1-(cyclopropylmethyl)-2-(methylamino)imidazo[4,5-c]pyridin-6-yl]amino]phenyl]acetamide] and CNc1nc2cnc(Nc3cccc(NC(C)=O)c3)cc2n1CC1CC1 [Compound 574, N-[3-[[1-(cyclopropylmethyl)-2-(methylamino)imidazo[4,5-c]pyridin-6-yl]amino]phenyl]acetamide] fall in the same range of Emax: 50 to 100% for the first, 50 to 100% for the second.

CNc1nc2cnc(Nc3ccc(OC)cc3OC)cc2n1CC1CC1 [Compound 569, 1-(cyclopropylmethyl)-N6-(2,4-dimethoxyphenyl)-N2-methyl-imidazo[4,5-c]pyridine-2,6-diamine] and CNc1nc2cnc(Nc3cccc(N(C)C)c3)cc2n1CC1CC1 [Compound 573, 1-(cyclopropylmethyl)-N6-[3-(dimethylamino)phenyl]-N2-methyl-imidazo[4,5-c]pyridine-2,6-diamine] fall in the same range of Emax: 30 to 50% for the first, 30 to 50% for the second.

CNc1nc2cnc(Nc3ccc(N4CCOCC4)cc3)cc2n1CC1CC1 [Compound 571, 1-(cyclopropylmethyl)-N2-methyl-N6-(4-morpholinophenyl)imidazo[4,5-c]pyridine-2,6-diamine] and CNc1nc2cnc(Nc3ccc(N4CCN(C)CC4)cc3)cc2n1CC1CC1 [Compound 572, 1-(cyclopropylmethyl)-N2-methyl-N6-[4-(4-methylpiperazin-1-yl)phenyl]imidazo[4,5-c]pyridine-2,6-diamine] fall in the same range of Emax: 50 to 100% for the first, 50 to 100% for the second.

Compared with CC(=O)Nc1ccc(Nc2cc3c(cn2)nc(NCc2cccc(C)c2)n3C)cc1 [Compound 576, N-[4-[[1-methyl-2-(m-tolylmethylamino)imidazo[4,5-c]pyridin-6-yl]amino]phenyl]acetamide], Cc1cccc(CNc2nc3cnc(Nc4ccc(F)cc4)cc3n2C)c1 [Compound 582, N6-(4-fluorophenyl)-1-methyl-N2-(m-tolylmethyl)imidazo[4,5-c]pyridine-2,6-diamine] is lower in Emax: 50 to 100% for the first, 30 to 50% for the second.

Cc1cccc(CNc2nc3cnc(Nc4ccc5c(c4)OCCO5)cc3n2C)c1 [Compound 577, N6-(2,3-dihydro-1,4-benzodioxin-6-yl)-1-methyl-N2-(m-tolylmethyl)imidazo[4,5-c]pyridine-2,6-diamine] and Cc1cccc(CNc2nc3cnc(Nc4cccc(O)c4)cc3n2C)c1 [Compound 585, 3-[[1-methyl-2-(m-tolylmethylamino)imidazo[4,5-c]pyridin-6-yl]amino]phenol] fall in the same range of Emax: 50 to 100% for the first, 50 to 100% for the second.

Compared with COc1ccc(Nc2cc3c(cn2)nc(NCc2cccc(C)c2)n3C)cc1OC [Compound 578, N6-(3,4-dimethoxyphenyl)-1-methyl-N2-(m-tolylmethyl)imidazo[4,5-c]pyridine-2,6-diamine], COc1ccc(-c2cc3c(cn2)nc(NCc2cccc(C)c2)n3C)cc1OC [Compound 579, 6-(3,4-dimethoxyphenyl)-1-methyl-N-(m-tolylmethyl)imidazo[4,5-c]pyridin-2-amine] is lower in Emax: 50 to 100% for the first, 30 to 50% for the second.

CC(=O)Nc1cccc(-c2cc3c(cn2)nc(NCc2cccc(C)c2)n3C)c1 [Compound 580, N-[3-[1-methyl-2-(m-tolylmethylamino)imidazo[4,5-c]pyridin-6-yl]phenyl]acetamide] and Cc1cccc(CNc2nc3cnc(-c4ccc(Cl)cc4)cc3n2C)c1 [Compound 581, 6-(4-chlorophenyl)-1-methyl-N-(m-tolylmethyl)imidazo[4,5-c]pyridin-2-amine] fall in the same range of Emax: 30 to 50% for the first, 30 to 50% for the second.

First: Cc1cccc(CNc2nc3cnc(-c4ccoc4)cc3n2C)c1 [Compound 583, 6-(3-furyl)-1-methyl-N-(m-tolylmethyl)imidazo[4,5-c]pyridin-2-amine]
Second: COc1ncccc1-c1cc2c(cn1)nc(NCc1cccc(C)c1)n2C [Compound 586, 6-(2-methoxy-3-pyridyl)-1-methyl-N-(m-tolylmethyl)imidazo[4,5-c]pyridin-2-amine]
The Emax of the first is higher: 50 to 100% for the first, 30 to 50% for the second.

Compared with Cc1cccc(CNc2nc3cnc(Nc4cccc(S(C)(=O)=O)c4)cc3n2C)c1 [Compound 584, 1-methyl-N6-(3-methylsulfonylphenyl)-N2-(m-tolylmethyl)imidazo[4,5-c]pyridine-2,6-diamine], Cc1cccc(CNc2nc3cnc(Nc4cccc(NS(C)(=O)=O)c4)cc3n2C)c1 [Compound 587, N-[3-[[1-methyl-2-(m-tolylmethylamino)imidazo[4,5-c]pyridin-6-yl]amino]phenyl]methanesulfonamide] is higher in Emax: 30 to 50% for the first, 50 to 100% for the second.

COc1cc(Nc2nc3cnc(-c4ccccc4)cc3n2C)cc(OC)c1OC [Compound 588, 1-methyl-6-phenyl-N-(3,4,5-trimethoxyphenyl)imidazo[4,5-c]pyridin-2-amine] gave an Emax of 30 to 50%.
